# Source: article PMC10461969 (bioRxiv, 2023)
# Like-named read-outs stand apart in the source and are kept apart here.
# Tests used:
# SIRT5 [1] = target: T1, SIRT5 (Homo sapiens, UniProt Q9NXA8); conditions: read-out: IC50 Pub., Succinyl; cited from earlier work
# T1 sequence (Q9NXA8 37-310): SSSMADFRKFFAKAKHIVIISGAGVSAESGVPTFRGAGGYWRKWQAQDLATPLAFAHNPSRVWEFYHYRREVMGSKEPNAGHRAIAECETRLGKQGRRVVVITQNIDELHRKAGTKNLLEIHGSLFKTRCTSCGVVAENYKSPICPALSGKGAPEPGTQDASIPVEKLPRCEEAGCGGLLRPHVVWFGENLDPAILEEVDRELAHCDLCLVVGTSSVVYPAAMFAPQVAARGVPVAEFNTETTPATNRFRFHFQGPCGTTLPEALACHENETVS
# SIRT5 [2] = target: T1, SIRT5; assay: SIRTify cell-free inhibitor assay, SIRT5; conditions: for IC50: 250 μM NAD+
# SIRT5 [3] = target: T1, SIRT5; assay: SIRTify in live; assay type: cell-based; conditions: intact KG1a-LgBiT cells with furimazine
# SIRT5 [4] = target: T1, SIRT5; assay: SIRTify in live; assay type: cell-based; conditions: intact HepG2-LgBiT cells with furimazine
# Sirt5 [5] = target: T2, Sirt5 (Danio rerio, UniProt Q6DHI5); assay: Endogenous Sirt5 desuccinylation activity in zebrafish embryos; assay type: in vivo, zebrafish (Danio rerio); conditions: embryos injected with LgBiT and peptide; endurazine
# T2 sequence (Q6DHI5 33-305): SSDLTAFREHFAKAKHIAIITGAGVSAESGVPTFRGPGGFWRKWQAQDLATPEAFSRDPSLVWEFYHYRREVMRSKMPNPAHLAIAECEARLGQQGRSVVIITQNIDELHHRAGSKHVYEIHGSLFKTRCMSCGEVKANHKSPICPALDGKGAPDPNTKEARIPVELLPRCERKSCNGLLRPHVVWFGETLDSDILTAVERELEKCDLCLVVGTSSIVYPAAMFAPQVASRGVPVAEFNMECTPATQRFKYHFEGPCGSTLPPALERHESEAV
lower IC50 for deglutarylase activity compared to desuccinylase activity (SIRT5 [2]),IC50 (SIRT5 [2]; Glutaryl substrate (deglutarylase activity)) [nM],IC50 (SIRT5 [2]; Succinyl substrate (desuccinylase activity)) [nM],luminescence versus peptide concentration (cell permeability) (SIRT5 [3]),luminescence versus peptide concentration (cell permeability) (SIRT5 [4]),luminescence over 90 minutes (endogenous desuccinylation) (Sirt5 [5]),Compound,IC50 (SIRT5 [1]) [nM]
approximately 3 fold,47 ± 2,102 ± 8,,,,O=C(O)CCNC(=S)NCCCC[C@H](NS(=O)(=O)c1cccc(F)c1)C(=O)N[C@@H](Cc1c[nH]c2ccccc12)C(=O)NC1CCC1,110
,,,much lower signal,much lower signal,,"H2N-VSGWRLF(KGlut)(KGlut)ISRRRR-OH [p86-Glutaryl8,9-R4]",
,,,much lower signal,much lower signal,slight increase in luminescence,"H2N-VSGWRLF(KSuc)(KSuc)ISRRRR-OH [p86-Succinyl8,9-R4]",

Compound,lower IC50 for deglutarylase activity compared to desuccinylase activity (SIRT5 [2]),IC50 (SIRT5 [2]; Glutaryl substrate (deglutarylase activity)) [nM],IC50 (SIRT5 [2]; Succinyl substrate (desuccinylase activity)) [nM],luminescence versus peptide concentration (cell permeability) (SIRT5 [3]),luminescence versus peptide concentration (cell permeability) (SIRT5 [4]),luminescence over 90 minutes (endogenous desuccinylation) (Sirt5 [5]),IC50 (SIRT5 [1]) [nM]
CC[C@H](C)[C@H](NC(=O)[C@H](CCCCN)NC(=O)[C@H](CCCCN)NC(=O)[C@H](Cc1ccccc1)NC(=O)[C@H](CC(C)C)NC(=O)[C@H](CCCNC(=N)N)NC(=O)[C@H](Cc1c[nH]c2ccccc12)NC(=O)CNC(=O)[C@H](CO)NC(=O)[C@@H](N)C(C)C)C(=O)N[C@@H](CO)C(=O)N[C@@H](CCCNC(=N)N)C(=O)N[C@@H](CCCNC(=N)N)C(=O)N[C@@H](CCCNC(=N)N)C(=O)N[C@@H](CCCNC(=N)N)C(=O)O [p86-R4],,,,directly proportional to p86-R4 concentration,directly proportional to p86-R4 concentration,,
